Patent US20110263454A1, “Methods of Identifying Functional Characteristics of Promoters, Transcription Modifying Proteins and Transcription Modulating Agents” (Salk Institute for Biological Studies, priority 2008, published 2011)

B1: LXRb: Liver X Receptor β (NR1H2), cDNA driver (protein, UniProt P55055 1-460, looked up)
Oxysterols receptor LXR-beta: MSSPTTSSLDTPLPGNGPPQPGAPSSSPTVKEEGPEPWPGGPDPDVPGTDEASSACSTDWVIPDPEEEPERKRKKGPAPKMLGHELCRVCGDKASGFHYNVLSCEGCKGFFRRSVVRGGARRYACRGGGTCQMDAFMRRKCQQCRLRKCKEAGMREQCVLSEEQIRKKKIRKQQQESQSQSQSPVGPQGSSSSASGPGASPGGSEAGSQGSGEGEGVQLTAAQELMIQQLVAAQLQCNKRSFSDQPKVTPWPLGADPQSRDARQQRFAHFTELAIISVQEIVDFAKQVPGFLQLGREDQIALLKASTIEIMLLETARRYNHETECITFLKDFTYSKDDFHRAGLQVEFINPIFEFSRAMRRLGLDDAEYALLIAINIFSADRPNVQEPGRVEALQQPYVEALLSYTRIKRPQDQLRFPRMLMKLVSLRTLSSVHSEQVFALRLQDKKLPPLLSEIWDVHE
B2: HNF4a: Hepatocyte Nuclear Factor α (NR2A1), cDNA driver (protein, UniProt P41235 1-474, looked up)
Hepatocyte nuclear factor …: MRLSKTLVDMDMADYSAALDPAYTTLEFENVQVLTMGNDTSPSEGTNLNAPNSLGVSALCAICGDRATGKHYGASSCDGCKGFFRRSVRKNHMYSCRFSRQCVVDKDKRNQCRYCRLKKCFRAGMKKEAVQNERDRISTRRSSYEDSSLPSINALLQAEVLSRQITSPVSGINGDIRAKKIASIADVCESMKEQLLVLVEWAKYIPAFCELPLDDQVALLRAHAGEHLLLGATKRSMVFKDVLLLGNDYIVPRHCPELAEMSRVSIRILDELVLPFQELQIDDNEYAYLKAIIFFDPDAKGLSDPGKIKRLRSQVQVSLEDYINDRQYDSRGRFGELLLLLPTLQSITWQMIEQIQFIKLFGMAKIDNLLQEMLLGGSPSDAPHAHHPLHPHLMQEHMGTNVIVANTMPTHLSNGQMCEWPRPRGQAATPETPQPSPPGGSGSEPYKLLPGAVATIVKPLSAIPQPTITKQEVI

Key:
[1] = tested on: hPOMC promoter; test: NHR-promoter luciferase screen, hPOMC promoter; format: cell-based, human; details: for Luc. act., normalized to lacZ / Normalized Luc. act., normalized to control: hPOMC promoter, HR/ligand component; for hPOMC promoter reporter activity: transcription factor +/- ligand, control = 1.00
Protocol: (§1) The use, feasibility, and reproducibility of the functional NHR-promoter screen in a 48-well format have been tested validated. Briefly, there were co-expressed 50 ng of each NHR/NHR homodimer or NHR/RXR heterodimer with 100 ng promoter/luciferase construct and 50 ng of LacZ (as a control for transfection efficiency) in CV-1 cells using Fugene HD (Roche) as a transfection reagent (alternatively or additionally, a CMV-YFP construct can be used as a transfection control). Each of the nuclear hormone receptors that were used in these experiments was cloned into a pcDNA3.1 vector and comprised a C-terminally linked V5H6 tag. Twenty-four hours after transfection, appropriate ligands were added, where applicable, (see Table 5 for various ligands and concentrations and after 48 hrs, samples were assayed for luciferase and LacZ activity. To measure for luciferase activity 15 ul of sample was added to 30 ul of luciferase buffer (20 mM tricine, 1.07 mM MgCarbonate, 2.67 mM MgSulfate, 0.1 mM Naz-EDTA, 5 mM DTT, 5 mM ATP, 0.15 mg/ml CoA, 0.5 mM Luciferin), mixed briefly, and run in a Perkin Elmer Victor 5 luminometer. Thus, the functional NHR-promoter screen was used to observe the transcriptional activity of 29 promoters from various physiological pathways including inflammation, lipid and sugar metabolism, cholesterol transport, xenobiotic metabolism, and circadian rhythm.
(§2) The promoters that facilitate transcription of the indicated gene products that were tested using the protocols described herein are listed in the first row of the table. The nuclear hormone receptors and, where applicable, ligands that were assayed for their transcriptional effects on the promoters are listed in the first column of the table. The data represent the luciferase activity of each sample normalized to both the lacZ activity of that sample and to a control, e.g., no NHR or ligand, as customary in the art. As described previously, these normalizations allow the transcriptional activity of each reporter cell to be compared to other samples.
(§3) Tables 7-40 show the transcriptional effects of the hormone receptors, and, where applicable, ligands (orphan receptors are screened without ligand), on each individual promoter. […] The control data of each table are shown in their last rows.

[2] = tested on: hMDR1 promoter; test: NHR-promoter luciferase screen, hMDR1 promoter; format: cell-based, human; details: for Luc. act., normalized to lacZ / Normalized Luc. act., normalized to control: MDR1 promoter, HR/ligand component; for hMDR1 promoter reporter activity: transcription factor +/- ligand, control = 1.00
Protocol: as §1, §2, §3

[3] = tested on: RevErba promoter; test: NHR-promoter luciferase screen, RevErba (RVRa) promoter; format: cell-based; parameters: key to mRevErba promoter reporter activity / Normalized Luc. act., normalized to control: luciferase activity normalized to lacZ and to control (no NHR/ligand); details: for Luc. act., normalized to lacZ / Normalized Luc. act., normalized to control / negative reciprocal of normalized Luc. act. (fold repression; Table 33) / normalized Luc. act. on a logarithmic scale (column without head, Table 33): RVRa promoter; for Luc. act., normalized to lacZ / Normalized Luc. act., normalized to control: HR component without or with ligand; for negative reciprocal of normalized Luc. act. (fold repression; Table 33): given only where activity is below control; for normalized Luc. act. on a logarithmic scale (column without head, Table 33): log10 of activity normalized to control; for mRevErba promoter reporter activity: transcription factor +/- ligand, control = 1.00
Protocol: (§4) Briefly, there were co-expressed 50 ng of each NHR/NHR homodimer or NHR/RXR heterodimer with 100 ng promoter/luciferase construct and 50 ng of LacZ (as a control for transfection efficiency) in CV-1 cells using Fugene HD (Roche) as a transfection reagent (alternatively or additionally, a CMV-YFP construct can be used as a transfection control). Each of the nuclear hormone receptors that were used in these experiments was cloned into a pcDNA3.1 vector and comprised a C-terminally linked V5H6 tag.
as §2
The control data of each table are shown in their last rows.

[4] = tested on: mNPY promoter; test: NHR-promoter luciferase screen, mNPY promoter; format: cell-based, mouse; details: for Results of assays of transcription factor (+/- ligand) with mNPY: Table 6d, luciferase activity relative to control (control = 1.00); for Luc. act., normalized to lacZ / Normalized Luc. act., normalized to control: mNPY promoter, HR component with or without ligand; for Normalized Luc. act., normalized to control: relative to control
Protocol: as §1, §2, §3

[5] = tested on: hCYP3A4 promoter; test: NHR-promoter luciferase screen, hCYP3A4 promoter; format: cell-based, human; details: for Luc. act., normalized to lacZ / Normalized Luc. act., normalized to control: CYP3A4 promoter, HR/ligand component; for hCYP3A4 promoter reporter activity: transcription factor +/- ligand, control = 1.00
Protocol: as §4, §2, §3

Molecule | Luc. act., normalized to lacZ [1] | Normalized Luc. act., normalized to control [1] | hPOMC promoter reporter activity [1] | Luc. act., normalized to lacZ [2] | Normalized Luc. act., normalized to control [2] | hMDR1 promoter reporter activity [2] | Luc. act., normalized to lacZ [3] | Normalized Luc. act., normalized to control [3] | negative reciprocal of normalized Luc. act. (fold repression; Table 33) [3] | normalized Luc. act. on a logarithmic scale (column without head, Table 33) [3] | mRevErba promoter reporter activity [3] | Results of assays of transcription factor (+/- ligand) with mNPY [4] | Luc. act., normalized to lacZ [4] | Normalized Luc. act., normalized to control [4] | Luc. act., normalized to lacZ [5] | Normalized Luc. act., normalized to control [5] | hCYP3A4 promoter reporter activity [5]
RXRa: Retinoic X Receptor α (NR2B1), cDNA driver | 2.6 | 0.6 | 0.61 | 0.2 | 0.5 | 0.51 | 26.26 | 0.9 | −1.065 | −0.03 | 0.94 | 0.95 | 80.0 | 1.0 | 1.5 | 0.3 | 0.35
SF-1: Steroidogenic Factor 1 (NR5A1, SF1), cDNA driver | 13.1 | 3.1 | 3.06 | 0.7 | 2.4 | 2.36 | 125.0 | 4.5 | – | 0.65 | 4.47 | 2.12 | 177.6 | 2.1 | 10.6 | 2.4 | 2.39
TLX: Tailless (homolog of drosophila) (NR2E1), cDNA driver | 2.6 | 0.6 | 0.60 | 0.2 | 0.7 | 0.70 | 13.5 | 0.5 | −2.079 | −0.32 | 0.48 | 1.11 | 93.5 | 1.1 | 4.0 | 0.9 | 0.90
VDR: Vitamin D Receptor (NR1I1), cDNA driver | 3.8 | 0.9 | 0.90 | 0.3 | 0.9 | 0.90 | 27.5 | 1.0 | −1.018 | −0.01 | 0.98 | 0.79 | 66.7 | 0.8 | 5.1 | 1.2 | 1.15
B1 | 6.3 | 1.5 | 1.46 | 0.2 | 0.8 | 0.78 | 30.9 | 1.1 | – | 0.04 | 1.10 | 0.81 | 68.0 | 0.8 | 4.8 | 1.1 | 1.08
B2 | 3.5 | 0.8 | 0.81 | 0.2 | 0.8 | 0.77 | 30.15 | 1.1 | – | 0.03 | 1.08 | 0.52 | 43.5 | 0.5 | 1.7 | 0.4 | 0.37
